Consider one molecule from ChEMBL document CHEMBL5550214, “Expanding Structure-Activity Relationships of Human Urotensin II Peptide Analogues: A Proposed Key Role of the N-Terminal Region for Novel Urotensin II Receptor Modulators” (J Med Chem, 2024).

Experiment [1] relates to Aortic ring. As to the kind of experiment: Induction of contraction in Albino Wistar rat aortic ring assessed as Emax of [Ala1]U-II at 0.1 uM incubated for 30 mins in presence of [Ala1]U-II (reference value: 153.3 +/- 10.75 dyne/mg). It is filed as functional, Aorta. The following applies: 0.5 h.
The test system of experiment [2] is Aortic ring. As to the kind of experiment: Induction of contraction in Albino Wistar rat aortic ring at 1 to 30 nM. It is filed as functional, tissue-based. The following applies: Aorta, dose 1-30 nM.
Experiment [3] concerns Aortic ring. As to the kind of experiment: Induction of contraction in Albino Wistar rat aortic ring assessed as Emax of hU-II at 10 uM incubated for 30 mins in presence of hU-II (reference value: 279.9 +/- 11.02 dyne/mg). It is filed as functional, Aorta. Conditions: 0.5 h.
Experiment [4] deals with Aortic ring. As to the kind of experiment: Induction of contraction in Albino Wistar rat aortic ring assessed as Emax of [Ala1]U-II at 1 uM incubated for 30 mins in presence of [Ala1]U-II (reference value: 391.6 +/- 38.83 dyne/mg). Type of experiment: functional, Aorta. The following applies: 0.5 h.
Experiment [5] relates to Aortic ring. As to the kind of experiment: Induction of contraction in Albino Wistar rat aortic ring assessed as Emax of hU-II at 1 uM incubated for 30 mins in presence of hU-II (reference value: 238.4 +/- 9.53 dyne/mg). Conditions: 0.5 h. Type of experiment: functional, Aorta.
Experiment [6] concerns Aortic ring. As to the kind of experiment: Induction of contraction in Albino Wistar rat aortic ring assessed as Emax of [Ala1]U-II at 10 uM incubated for 30 mins in presence of [Ala1]U-II (reference value: 323 +/- 30.45 dyne/mg). Type of experiment: functional, Aorta. The following applies: 0.5 h.
Experiment [7] deals with Aortic ring. As to the kind of experiment: Induction of contraction in Albino Wistar rat aortic ring assessed as Emax of U-II(4-11) at 0.1 uM incubated for 30 mins in presence of U-II(4-11) (reference value: 159.8 +/- 7.3 dyne/mg). Type of experiment: functional, Aorta. Conditions: 0.5 h.
Experiment [8] deals with Aortic ring. As to the kind of experiment: Induction of contraction in Albino Wistar rat aortic ring assessed as Emax of U-II(4-11) at 10 uM incubated for 30 mins in presence of U-II(4-11) (reference value: 242.6 +/- 20.63 dyne/mg). It is filed as functional, Aorta. Conditions: 0.5 h.
For experiment [9], the system named is Aortic ring. As to the kind of experiment: Induction of contraction in Albino Wistar rat aortic ring assessed as Emax of U-II(4-11) at 1 uM incubated for 30 mins in presence of U-II(4-11) (reference value: 152.4 +/- 5.1 dyne/mg). It is filed as functional, Aorta. The following applies: 0.5 h.
Experiment [10] relates to Aortic ring. As to the kind of experiment: Induction of contraction in Albino Wistar rat aortic ring assessed as Emax of hU-II at 0.1 uM incubated for 30 mins in presence of hU-II (reference value: 214.5 +/- 10.51 dyne/mg). Type of experiment: functional, Aorta. Conditions: 0.5 h.

SMILES strings stand for the structures. Calls of active or inactive are those of the source. No cut-off for these calls is given here.

On to `CC(C)[C@H](NC(=O)[C@@H]1CSSC(C)(C)[C@H](NC(=O)[C@H](C)NC(=O)[C@@H]2CCCN2C(=O)[C@@H](NC(=O)[C@H](C)N)[C@@H](C)O)C(=O)N[C@@H](Cc2ccccc2)C(=O)N[C@H](Cc2c[nH]c3ccccc23)C(=O)N[C@@H](CCCN)C(=O)N[C@@H](Cc2ccc(O)cc2)C(=O)N1)C(=O)O`, for which the Emax came out at 406.4 dyn/mg in the experiment with Aortic ring [1]; 126.2 dyn/mg in the experiment with Aortic ring [3]; 593 dyn/mg in the experiment on Aortic ring [4]; 231.1 dyn/mg with Aortic ring [5]; 457.6 dyn/mg in the experiment on Aortic ring [6]; 354.4 dyn/mg in the experiment with Aortic ring [7]. Besides, the values for the Emax in the experiment with Aortic ring [8], in the experiment on Aortic ring [9] and in the experiment on Aortic ring [10] were 261.8 dyn/mg, 502.2 dyn/mg and 386.5 dyn/mg, respectively. Besides, the outcome in the experiment with Aortic ring [2] was inactive.
